Among the data in paper PMC10907560, “Significant reduction of activity retention in the kidneys via optimized linker sequences in radiohybrid-based minigastrin analogs” (EJNMMI Research, 2024) are IC50 values, retold here.

This test deals with T1, cholecystokinin-2 receptor (CCK-2R) (Rattus norvegicus, UniProt P30553).
T1 construct: host or cells: AR42J (rat pancreatic cancer cells)
T1 sequence (P30553 1-452): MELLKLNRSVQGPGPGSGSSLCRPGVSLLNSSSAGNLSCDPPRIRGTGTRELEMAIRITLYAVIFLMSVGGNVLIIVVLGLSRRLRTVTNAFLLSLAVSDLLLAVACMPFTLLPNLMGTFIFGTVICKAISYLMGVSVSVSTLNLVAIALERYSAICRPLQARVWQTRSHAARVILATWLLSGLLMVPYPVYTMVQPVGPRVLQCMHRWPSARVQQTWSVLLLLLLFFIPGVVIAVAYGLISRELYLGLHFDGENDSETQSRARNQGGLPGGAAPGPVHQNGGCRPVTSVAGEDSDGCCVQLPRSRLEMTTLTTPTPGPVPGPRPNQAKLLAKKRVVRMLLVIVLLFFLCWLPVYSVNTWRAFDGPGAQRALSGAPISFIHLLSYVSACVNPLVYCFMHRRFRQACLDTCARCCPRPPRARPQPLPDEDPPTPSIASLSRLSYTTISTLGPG
Briefly: CCK-2R affinity (apparent IC50), competitive binding on AR42J cells. To be noted: natLu-labeled peptide, 3 h, 37 °C, [177Lu]Lu-DOTA-PP-F11N (0.3 pmol) as radiolabeled reference. How it is done: On the next day, medium was removed, cells were washed with PBS (300 µL) and fresh nutrient medium supplemented with 5% BSA (200 µL) was added. The peptide of interest (25 µL in nutrient medium) in increasing concentrations (10^−10 to 10^−4 M) in triplicate as well as [^177Lu]Lu-DOTA-PP-F11N (25 μL, 0.3 pmol) were added to the cells and the assay was incubated for 3 h at 37 °C. Subsequently, the supernatant was collected, cells were washed with PBS (300 µL) and both fractions were unified. Cell lysis was conducted by addition of NaOH (300 µL, 1 N) and incubation for at least 20 min at room temperature. The supernatant was collected, the respective wells were washed with NaOH (300 µL, 1 N) and both fractions were unified. Radioactivity of all fractions collected was quantified using a γ-counter (PerkinElmer Inc., Waltham, United States). Apparent half-maximal inhibitory concentration (IC50) was calculated via the GraphPad PRISM software (GraphPad Software Inc., La Jolla, United States).
CCK-2R positive rat pancreatic cancer cells AR42J (CLS GmbH, Eppelheim, Germany) were cultivated in monolayers in CELLSTAR® cell culture flask (Greiner Bio-One GmbH, Frickenhausen, Germany) at 37°C in a humidified atmosphere (5% CO2). Therefor, a HERAcell 150i-Incubator (Thermo Fisher Scientific Inc., Waltham, United States) was used. RPMI 1640 medium, supplemented with 5 mM L-Gln 5 mL non-essential amino acids (100×) and 10% FCS, was used for cell nutrition. Detachment of the cells for passaging was conducted with a Dulbecco’s PBS solution supplemented with 0.1% EDTA (v/v). Cell numbers were determined with a Neubauer hemocytometer (Paul Marienfeld, Lauda-Königshofen, Germany). All operations requiring sterile conditions, were accomplished using a MSC-Advantage safety workbench (Thermo Fisher Scientific Inc., Waltham, United States).
Table S1. Affinity, lipophilicity and human serum albumin binding data of the compounds evaluated. Affinity data were determined on AR42J cells (2.0 × 10^5 cells/well) and [^177Lu]Lu-DOTA-PP-F11N (0.3 pmol/well) as radiolabeled reference (3 h, 37 °C, RPMI 1640, 5 mM L-Gln, 5 mL non-essential amino acids (100×), 10% FCS + 5% BSA (v/v)).

The IC50 is the concentration needed to halve the response being measured. In the case of `CCCC[C@@H](C(=O)N[C@@H](CC(=O)O)C(=O)N[C@@H](Cc1cccc2ccccc12)C(N)=O)N(C)C(=O)[C@H](Cc1c[nH]c2ccccc12)NC(=O)CCOCCOCCOCCOCCNC(=O)CC[C@@H](NC(=O)CCOCCOCCOCCOCCOCCNC(=O)CC[C@@H](NC(=O)[C@@H](CNC(=O)C[N+](C)(C)Cc1ccc([Si](F)(C(C)(C)C)C(C)(C)C)cc1)NC(=O)CN1CCN(CC(=O)O)CCN(CC(=O)O)CCN(CC(=O)O)CC1)C(=O)O)C(=O)O` [[^nat/177Lu]Lu-DOTA-rhCCK-91, DOTA-D-Dap(SiFAlin)-D-γ-Glu-(PEG)4-D-γ-Glu-(PEG)3-Trp-(N-Me)Nle-Asp-1-Nal-NH2, metal not drawn], the IC50 (n = 3, listed as [^177/natLu]Lu-DOTA-rhCCK-91) amounted to 8.6 ± 0.7 nM and the IC50 (n = 3, listed as [^natLu]Lu-DOTA-rhCCK-91) was found to be 8.56 ± 0.66 nM.
